# Measurements from patent US5273991A, “Imidazole-containing compositions and methods of use thereof analogs of distamycin” (Research Corporation Technologies, Inc., priority 1992, dated 1993).
# Experiments:
# M14 = assay: NCI cytotoxicity screen (SRB); type: cell-based, human
# Protocol: (§1) Compounds 6, 7, 9 and 10 were tested for cytotoxic properties by the National Cancer Institute, Bethesda, Md. The anticancer drug screen utilized a panel of 60 human tumor cell lines organized into subpanels representing leukemia, melanoma, and cancers of the lung, colon, kidney, ovary and central nervous system and is described by Monks et al. (1991) Journal of the National Cancer Institute 83, 757, which is incorporated herein by reference.
# (§2) Cell lines were inoculated onto microtiter plates and preincubated for 24-28 hours. 100 μL aliquots of each compound were added to the appropriate microtiter plate wells in each of five 10-fold dilutions starting from a maximum concentration of 10^-4 M in water or DMSO. Cultures were then incubated for an additional 48 hours. Cells were then fixed in situ, followed by staining with sulforhodamine B (SRB), which binds to basic amino acids of cellular macromolecules. The solubilized stain was measured spectrophotometrically to determine relative cell growth or viability in treated and untreated cells. The monoimidazole analogs of Compounds 6, 7, 9 and 10 and the formamido analog corresponding to Compounds 7 and 10 are devoid of activity against the panel of cancer cell lines in Table III.
# SN12C = assay: NCI cytotoxicity screen (SRB); type: cell-based, human
# Protocol: as §1, §2
# OVCAR-4 = assay: NCI cytotoxicity screen (SRB); type: cell-based, human
# Protocol: as §1, §2
# A498 = assay: NCI cytotoxicity screen (SRB); type: cell-based, human
# Protocol: as §1, §2
# HOP-92 = assay: NCI cytotoxicity screen (SRB); type: cell-based, human; settings: subsequent test date
# Protocol: as §1, §2
# CCRF-CEM = assay: NCI cytotoxicity screen (SRB); type: cell-based, human
# Protocol: as §1, §2
# SK-MEL-5 = assay: NCI cytotoxicity screen (SRB); type: cell-based, human
# Protocol: as §1, §2
# SK-MEL-2 = assay: NCI cytotoxicity screen (SRB); type: cell-based, human
# Protocol: as §1, §2
# OVCAR-5 = assay: NCI cytotoxicity screen (SRB); type: cell-based, human
# Protocol: as §1, §2
# SNB-19 = assay: NCI cytotoxicity screen (SRB); type: cell-based, human
# Protocol: as §1, §2
# RPMI-8226 = assay: NCI cytotoxicity screen (SRB); type: cell-based, human
# Protocol: as §1, §2
# LOX 1MV1 = assay: NCI cytotoxicity screen (SRB); type: cell-based, human
# Protocol: as §1, §2
# SK-OV-3 = assay: NCI cytotoxicity screen (SRB); type: cell-based, human
# Protocol: as §1, §2
# calf thymus DNA = assay: ethidium displacement assay, calf thymus DNA; type: binding; settings: ± 0.02 × 10^5 M^-1, pH 7.4
# From the text: The ethidium displacement assay is based on the fact that ethidium binding to DNA causes a large (approximately 25 fold) florescence enhancement as a result of the hydrophobic environment surrounding the ethidium molecule. Displacement of ethidium results in decreased fluorescence, and thus binding constants of drugs to DNA can be estimated and compared by measuring the loss of fluorescence as a function of added drug. The drug concentration which produces 50% inhibition of florescence is approximately inversely proportional to the apparent binding constant.
# The relative DNA binding constants (Kapp) of distamycin and Compounds 6-10 to calf thymus DNA, T4 coliphage DNA, poly(dAdT) and poly(dGdC) were determined using the ethidium displacement assay (Morgan et al., 1979). The Kapp of ethidium bromide (Debart et al., 1989) is included for comparison. 25 μL of a 2A260 DNA solution was added to 2 mL of ethidium bromide buffer (250 μL of 1.3 mM ethidium bromidestock, 314.9 mg Tris-HCl, 60.8 mg Tris base and 930/mg of Na2 EDTA.2H2 O in 250 ml H2 O) pH 7.4 and the maximum fluorescence was measured (excitation wavelength=546 nm, emission wavelength=600 nm) at ambient temperature.
# DNA solutions of 2A260 were prepared as follows: T4 coliphage DNA: 10 units of DNA were dissolved in 1 mL of 10 mM sodium phosphate (pH 7.1) and 0.25 mM EDTA buffer to give a 10A260 solution. 0.3 mL of the stock solution were diluted to 1.5 mL with 10 mM sodium phosphate (pH 7.1) and 0.25 mM EDTA buffer to give a 2A260 solution. Calf thymus DNA: 100 units of DNA were dissolved in 5 mL of 10 mM sodium phosphate (pH 7.1) and 0.25 mM EDTA buffer to give a 20A260 solution. 1.5 mL of the stock solution were diluted to 15 mL with 10 mM sodium phosphate (pH 7.1) and 0.25 mM EDTA buffer to give a 2A260 solution. Poly(dA-dT) and Poly(dG-dC) DNA: 100 units of DNA were dissolved in 10 mL of 10 mM sodium phosphate pH 7.1) and 0.25 mM EDTA buffer to give a 10A260 solution. 3 mL of the stock solution were diluted to 15 mL with 10 mM sodium phosphate (pH 7.1) and 0.25 mM EDTA buffer to give a 2A260 solution.
# Aliquots of 10 mM stock drug solution (1 mg of drug to be tested was dissolved with 1 mole equivalent of 0.1M HCl, and then diluted with appropriate volume of distilled water to make a 10 mM solution) were then added to the fluorescing solution and the florescence measured after each addition until a 50% reduction of fluorescence occurred. If the 10 mM stock solution lowered the % fluorescence too quickly, the stock solution was further diluted to 1 mM prior to titration. The apparent binding constant was then calculated from this equation: KEtBr [EtBr]=Kapp [drug], where [drug]=the concentration of drug at a 50% reduction of fluorescence and KEtBr [1×10^7 M^-1 for calf thymus and coliphage T4 DNA^18, 9.5×10^6 M^-1 for poly(dA.dT)^30, and 9.9×10^6 M^-1 for poly(dG.dC)^30 ] and [EtBr] were known. The concentration of ethidium bromide was 1.3 μM. The Kapp values are shown in Table I. In a separate experiment, the Kapp of Compound 5 for calf thymus DNA and poly[dGdC] were determined to be 0.3×10^5 M^-1 and 2.6×10^5 M^-1, respectively. The error in these measurements is ±[…].
Structure (SMILES),"IC50 (M14; M14, subsequent test date)","IC50 (SN12C; SN12C, subsequent test date)","IC50 (OVCAR-4; 48 h, Ovarian Cancer OVCAR-4)","IC50 (OVCAR-4; OVCAR-4, subsequent test date)","IC50 (A498; 48 h, Renal Cancer A498)",IC50 (HOP-92),"IC50 (CCRF-CEM; 48 h, Leukemia CCRF-CEM)","IC50 (SK-MEL-2; 48 h, Melanoma SK-MEL-2)","IC50 (OVCAR-5; 48 h, Ovarian Cancer OVCAR-5)","IC50 (OVCAR-5; OVCAR-5, subsequent test date)","IC50 (SNB-19; 48 h, CNS Cancer SNB-19)","IC50 (RPMI-8226; 48 h, Leukemia RPMI-8226)","IC50 (LOX 1MV1; LOX 1MV1, subsequent test date)","IC50 (SK-OV-3; 48 h, Ovarian Cancer SK-OV-3)","IC50 (SK-OV-3; SK-OV-3, subsequent test date)",Association constant Kapp (calf thymus DNA),other results
"CN(C)CCNC(=O)c1nc(NC(=O)c2nc(NC(=O)c3ccc(N(CCCl)CCCl)cc3)cn2C)cn1C [Compound 6, N-(N',N'-dimethylaminoethyl)-1-methyl-4-{4-[4,4-bis(2-chloroethyl)aminobenzamido]-1-methylimidazole-2-carboxamido}imidazole-2-carboxamide]",5.81 µM,39.9 µM,34.2 µM,14.3 µM,40.6 µM,42.7 µM,10.9 µM,7.17 µM,45.7 µM,51.3 µM,43.7 µM,30.5 µM,7.47 µM,52.9 µM,6.18 µM,456000 M⁻¹,"IC50 (M14; 48 h, Melanoma M14): 5.92 µM; IC50 (SN12C; 48 h, Renal Cancer SN12C): 15.6 µM; IC50 (A498; A498, subsequent test date): 66 µM; IC50 (CCRF-CEM; CCRF-CEM, subsequent test date): 40.3 µM; IC50 (SK-MEL-5; SK-MEL-5, subsequent test date): 52 µM; IC50 (SK-MEL-2; SK-MEL-2, subsequent test date): 5.85 µM; IC50 (SNB-19; SNB-19, subsequent test date): 32.4 µM; IC50 (RPMI-8226; RPMI-8226, subsequent test date): 39.4 µM"
"CN(C)CCNC(=O)c1nc(NC(=O)c2nc(NC(=O)c3nc(NC(=O)c4ccc(N(CCCl)CCCl)cc4)cn3C)cn2C)cn1C [Compound 7, N-(N',N'-dimethylaminoethyl)-1-methyl-4-{1-methyl-4-[4-(4,4-bis-(2-chloroethyl)aminobenzamido)-1-methylimidazole-2-carboxamido]imidazole-2-carboxamido}imidazole-2-carboxamide]",0.59 µM,0.61 µM,0.61 µM,0.5 µM,7.76 µM,3.33 µM,1.52 µM,0.65 µM,6.13 µM,5.24 µM,> 100 µM,–,4.51 µM,0.83 µM,0.48 µM,591000 M⁻¹,"IC50 (SK-MEL-5; 48 h, Melanoma SK-MEL-5): 0.63 µM; IC50 (LOX 1MV1; 48 h, Melanoma LOX 1MV1): 0.89 µM"
"CN(C)CCNC(=O)c1nc(NC(=O)c2nc(NC(=O)c3nc(NCc4ccc(N(CCCl)CCCl)cc4)cn3C)cn2C)cn1C [Compound 8, N-(N',N'-dimethylaminoethyl)-1-methyl-4-{1-methyl-4-[4-(4,4-bis-(2-chloroethyl)aminobenzylamino)-1-methylimidazole-2-carboxamido]imidazole-2-carboxamido}imidazole-2-carboxamide]",–,–,–,–,–,–,–,–,–,–,–,–,–,–,–,473000 M⁻¹,–
"CN(C)CCNC(=O)c1nc(NC(=O)c2nc(NC(=O)CCCc3ccc(N(CCCl)CCCl)cc3)cn2C)cn1C [Compound 9, N-(N',N'-dimethylaminoethyl)-1-methyl-4-{4-[4,4-bis(2-chloroethyl)aminophenyl-1-butanamido]-1-methylimidazole-2-carboxamido}imidazole-2-carboxamide]",–,–,–,–,–,–,–,–,–,–,–,–,–,–,–,64000 M⁻¹,–
"CN(C)CCNC(=O)c1nc(NC(=O)c2nc(NC(=O)c3nc(NC(=O)CCCc4ccc(N(CCCl)CCCl)cc4)cn3C)cn2C)cn1C [Compound 10, N-(N',N'-dimethylaminoethyl)-1-methyl-4-{1-methyl-4-[4-(4,4-bis(2-chloroethyl)aminophenyl-1-butanamido)-1-methylimidazole-2-carboxamido]imidazole-2-carboxamido}imidazole-2-carboxamide]",–,–,–,–,–,–,–,–,–,–,–,9.5 µM,–,–,–,22000 M⁻¹,–
